According to US9221756B2, “Pyrrole derivatives” (priority 2011, dated 2015):
pIC50: −log10 of the molar value. Like-named read-outs stand apart in the source and are kept apart here.

Columns and labels:
[1] = molecular target: pneumolysin (Streptococcus pneumoniae serotype 2, UniProt Q04IN8); assay: Inhibition of the haemolytic activity of pneumolysin (sheep erythrocytes); format: cell-based; details: class symbols of Table 1
[2] = Conversion of prodrug derivatives to active inhibitors in mouse plasma; format: in vitro ADME; details: 37° C., 10 μM start, prodrug remaining; for [ ] (μM) t0 min. Prodrug: 0 min; for [ ] (μM) t15 min. Prodrug: 15 min; for [ ] (μM) t30 min. Prodrug: 30 min; for [ ] (μM) t60 min. Prodrug: 60 min; for [ ] (μM) t120 min. Prodrug: 120 min
Experimental: The samples were then analysed by LC-MS/MS to obtain the amount of active compound appearing and prodrug derivative remaining over time. The mouse plasma assay system is considered to be a good model for human behaviour. Nevertheless data obtained in a human plasma assay system was obtained in some cases.
Prodrug derivatives were assessed in the mouse and human plasma stability assay at a concentration of 10 μM. Test compounds were diluted in DMSO to a final stock concentration of 10 mM. For the purpose of the assay, the stocks prepared were further diluted in DMSO to a concentration of 400 μM and […] were added to 195 μl of mouse or human plasma (pH 7.4) and then incubated at 37° C. The final concentration of DMSO in the plate was 2.5% (v/v). Reactions were terminated at 0, 15, 30, 60 and 120 min after incubation by adding 400 μl of acetonitrile containing 0.55 μM metoprolol and 1% (v/v) formic acid. The plate was then centrifuged at 3000 rpm, for 45 min, at 4° C. 80 μl of supernatant were transferred into a conical bottom 96 well glass coated plate. 40 μl of water were added prior to analysis for prodrug derivative and active species by LC-MS/MS. This assay was performed by a contract research organisation, Cyprotex Discovery Limited, UK, at the request of the inventors at Leicester.
(1) The active compound was quantified using a 6 point calibration curve prepared in deactivated mouse and human plasma. (2) The percentage of parent compound remaining at each time point relative to 0 min sample was calculated from LC-MS/MS peak area ratios (compound peak area/internal standard peak area). This percentage was then used to determine the concentration of the parent compound at each time point in reference to the starting concentration (10 μM) at time 0 min.

[3] = IC50, inhibition of pneumolysin-induced haemolysis of sheep erythrocytes

Chain of pneumolysin (Q04IN8 whole entry): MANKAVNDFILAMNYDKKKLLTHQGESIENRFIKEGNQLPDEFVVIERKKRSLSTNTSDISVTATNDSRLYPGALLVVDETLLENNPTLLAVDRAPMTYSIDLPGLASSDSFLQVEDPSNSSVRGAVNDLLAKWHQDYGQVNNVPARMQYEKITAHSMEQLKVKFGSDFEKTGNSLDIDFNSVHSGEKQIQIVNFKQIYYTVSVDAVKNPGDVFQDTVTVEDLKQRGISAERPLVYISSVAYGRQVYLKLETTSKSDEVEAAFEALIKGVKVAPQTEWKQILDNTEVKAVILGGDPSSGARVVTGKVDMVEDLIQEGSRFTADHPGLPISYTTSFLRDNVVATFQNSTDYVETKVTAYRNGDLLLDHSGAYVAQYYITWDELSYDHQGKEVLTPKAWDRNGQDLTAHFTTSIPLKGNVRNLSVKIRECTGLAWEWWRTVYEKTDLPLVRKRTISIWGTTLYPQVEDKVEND

SMILES	pIC50 [1, 3]	also measured
CCOC(=O)c1c(OC(C)=O)c(OC(C)=O)c(C(=O)N(C)C)n1-c1ccc(OC)cc1 [UL1-044, 2-(dimethylcarbamoyl)-5-(ethoxycarbonyl)-1-(4-methoxyphenyl)-1H-pyrrole-3,4-diyl diacetate]	> 5.00	[ ] (μM) t0 min. Prodrug [2]: 10 µM; [ ] (μM) t15 min. Prodrug [2]: 0 µM; [ ] (μM) t30 min. Prodrug [2]: 0 µM; [ ] (μM) t60 min. Prodrug [2]: 0 µM; [ ] (μM) t120 min. Prodrug [2]: 0 µM
CCOC(=O)c1c(OC(=O)N(C)C)c(OC(=O)N(C)C)c(C(=O)N(C)C)n1-c1ccc(OC)cc1 [UL1-063, ethyl 5-(dimethylcarbamoyl)-3,4-bis((dimethylcarbamoyl)oxy)-1-(4-methoxyphenyl)-1H-pyrrole-2-carboxylate]		pIC50 ([1]; inhibition of pneumolysin-induced haemolysis of sheep erythrocytes, read-out: IC50): < 4.22; [ ] (μM) t0 min. Prodrug [2]: 10 µM; [ ] (μM) t15 min. Prodrug [2]: 10 µM; [ ] (μM) t30 min. Prodrug [2]: 9.20 µM; [ ] (μM) t60 min. Prodrug [2]: 9.40 µM; [ ] (μM) t120 min. Prodrug [2]: 8.50 µM
CCOC(=O)c1c(O)c(O)c(C(=O)OCC)n1-c1ccc(OCC)cc1 [UL2-008, diethyl 1-(4-ethoxyphenyl)-3,4-dihydroxy-1H-pyrrole-2,5-dicarboxylate]	> 5.00	
CCOC(=O)c1c(O)c(O)c(C(=O)OCC)n1-c1ccc(CC)cc1 [UL2-009, diethyl 1-(4-ethylphenyl)-3,4-dihydroxy-1H-pyrrole-2,5-dicarboxylate]	> 5.00	
CCOC(=O)c1c(O)c(O)c(C(=O)OCC)n1-c1ccc(C)cc1 [UL2-010, diethyl 3,4-dihydroxy-1-(p-tolyl)-1H-pyrrole-2,5-dicarboxylate]	> 5.00	
CCOC(=O)c1c(O)c(O)c(C(=O)OCC)n1-c1ccc(OC)c(OC)c1 [UL2-011, diethyl 1-(3,4-dimethoxyphenyl)-3,4-dihydroxy-1H-pyrrole-2,5-dicarboxylate]	> 5.00	
CCOC(=O)c1c(O)c(O)c(C(=O)OCC)n1-c1ccc(Cl)cc1 [UL2-012, diethyl 1-(4-chlorophenyl)-3,4-dihydroxy-1H-pyrrole-2,5-dicarboxylate]	> 5.00	
CCOC(=O)c1c(O)c(O)c(C(=O)OCC)n1-c1ccc(C(F)(F)F)cc1 [UL2-013, diethyl 3,4-dihydroxy-1-(4-(trifluoromethyl)phenyl)-1H-pyrrole-2,5-dicarboxylate]	> 5.00	
CCOC(=O)c1c(O)c(O)c(C(=O)OCC)n1-c1cc(OC)c(OC)c(OC)c1 [UL2-014, diethyl 3,4-dihydroxy-1-(3,4,5-trimethoxyphenyl)-1H-pyrrole-2,5-dicarboxylate]	> 5.00	
CCOC(=O)c1c(O)c(O)c(C(=O)OCC)n1-c1ccc(OC)cc1OC [UL2-015, diethyl 1-(2,4-dimethoxyphenyl)-3,4-dihydroxy-1H-pyrrole-2,5-dicarboxylate]	> 5.00	
CCCOc1ccc(-n2c(C(=O)OCC)c(O)c(O)c2C(=O)OCC)cc1 [UL2-016, diethyl 3,4-dihydroxy-1-(4-propoxyphenyl)-1H-pyrrole-2,5-dicarboxylate]	> 5.00	
CCOC(=O)c1c(O)c(O)c(C(=O)OCC)n1-c1cc(F)c(OCC)c(F)c1 [UL2-017, diethyl 1-(4-ethoxy-3,5-difluorophenyl)-3,4-dihydroxy-1H-pyrrole-2,5-dicarboxylate]	> 5.00	
CCOC(=O)c1c(O)c(O)c(C(=O)OCC)n1-c1cccc(Oc2ccccc2)c1 [UL2-018, diethyl 3,4-dihydroxy-1-(3-phenoxyphenyl)-1H-pyrrole-2,5-dicarboxylate]	> 5.00	
CCOC(=O)c1c(O)c(O)c(C(=O)OCC)n1-c1ccc2c(c1)OCO2 [UL2-019, diethyl 1-(benzo[d][1,3]dioxol-5-yl)-3,4-dihydroxy-1H-pyrrole-2,5-dicarboxylate]	4.22 to 4.70	
COc1ccc(-n2c(C(=O)OC(C)C)c(O)c(O)c2C(=O)OC(C)C)cc1 [UL2-020, diisopropyl 3,4-dihydroxy-1-(4-methoxyphenyl)-1H-pyrrole-2,5-dicarboxylate]	> 5.00	
CCOC(=O)c1c(O)c(O)c(C(=O)OC(C)C)n1-c1ccc(OC)cc1 [UL2-021, 2-ethyl 5-isopropyl 3,4-dihydroxy-1-(4-methoxyphenyl)-1H-pyrrole-2,5-dicarboxylate]	> 5.00	
COc1ccc(-n2c(C(=O)OC(C)(C)C)c(O)c(O)c2C(=O)OC(C)(C)C)cc1 [UL2-022, di-tert-butyl 3,4-dihydroxy-1-(4-methoxyphenyl)-1H-pyrrole-2,5-dicarboxylate]	> 5.00	

SMILES	pIC50 [1, 3]	also measured
CCOC(=O)c1c(O)c(O)c(C(=O)OCC)n1-c1ccccc1OC [UL2-023, diethyl 3,4-dihydroxy-1-(2-methoxyphenyl)-1H-pyrrole-2,5-dicarboxylate]	4.22 to 4.70	
CCOC(=O)c1c(O)c(O)c(C(=O)OCC)n1-c1ccc(C#N)cc1 [UL2-024, diethyl 1-(4-cyanophenyl)-3,4-dihydroxy-1H-pyrrole-2,5-dicarboxylate]	4.70 to 5.00	
CCOC(=O)c1c(O)c(OCCO)c(C(=O)OCC)n1-c1ccc(F)cc1 [UL2-025, diethyl 1-(4-fluorophenyl)-3-hydroxy-4-(2-hydroxyethoxy)-1H-pyrrole-2,5-dicarboxylate]	4.22 to 4.70	
CCOC(=O)c1c(O)c(OCCO)c(C(=O)OCC)n1-c1ccc(OC)cc1 [UL2-026, diethyl 3-hydroxy-4-(2-hydroxyethoxy)-1-(4-methoxyphenyl)-1H-pyrrole-2,5-dicarboxylate]	4.22 to 4.70	
CCOC(=O)c1c(O)c(OCC(=O)OC(C)(C)C)c(C(=O)OCC)n1-c1ccc(F)cc1 [UL2-027, diethyl 3-(2-(tert-butoxy)-2-oxoethoxy)-1-(4-fluorophenyl)-4-hydroxy-1H-pyrrole-2,5-dicarboxylate]	4.70 to 5.00	
CCOC(=O)c1c(OCC(=O)OC(C)(C)C)c(OCc2ccccc2)c(C(=O)OCC)n1-c1ccc(OC)cc1 [UL2-028, diethyl 3-(benzyloxy)-4-(2-(tert-butoxy)-2-oxoethoxy)-1-(4-methoxyphenyl)-1H-pyrrole-2,5-dicarboxylate]	4.22 to 4.70	
CCOC(=O)c1c(O)c(OCC(N)=O)c(C(=O)OCC)n1-c1ccc(F)cc1 [UL2-029, diethyl 3-(2-amino-2-oxoethoxy)-1-(4-fluorophenyl)-4-hydroxy-1H-pyrrole-2,5-dicarboxylate]	4.22 to 4.70	
CCOC(=O)c1c(O)c(OCC(=O)OC(C)(C)C)c(C(=O)OCC)n1-c1ccc(OC)cc1 [UL2-030, diethyl 3-(2-(tert-butoxy)-2-oxoethoxy)-4-hydroxy-1-(4-methoxyphenyl)-1H-pyrrole-2,5-dicarboxylate]	4.70 to 5.00	
CCOC(=O)c1c(O)c(OCC(N)=O)c(C(=O)OCC)n1-c1ccc(OC)cc1 [UL2-031, diethyl 3-(2-amino-2-oxoethoxy)-4-hydroxy-1-(4-methoxyphenyl)-1H-pyrrole-2,5-dicarboxylate]	4.22 to 4.70	
CCOC(=O)c1c(O)c(O)c(C(=O)OCC)n1-c1ccc(C(C)(C)C)cc1 [UL2-032, diethyl 1-(4-(tert-butyl)phenyl)-3,4-dihydroxy-1H-pyrrole-2,5-dicarboxylate]	> 5.00	
CCOC(=O)c1c(O)c(O)c(C(=O)OCC)n1-c1ccc(OC)c(I)c1 [UL2-033, diethyl 3,4-dihydroxy-1-(3-iodo-4-methoxyphenyl)-1H-pyrrole-2,5-dicarboxylate]	> 5.00	
CCOC(=O)c1c(O)c(O)c(C(=O)OCC)n1-c1ccc(OCCOC)cc1 [UL2-034, diethyl 3,4-dihydroxy-1-(4-(2-methoxyethoxy)phenyl)-1H-pyrrole-2,5-dicarboxylate]	> 5.00	
CCOC(=O)c1c(O)c(O)c(C(=O)OCC)n1-c1ccc(OCCOCCOCCOC)cc1 [UL2-035, diethyl 3,4-dihydroxy-1-(4-(2-(2-(2-methoxyethoxy)ethoxy)ethoxy)phenyl)-1H-pyrrole-2,5-dicarboxylate]	> 5.00	
CCOC(=O)c1c(O)c(O)c(C(=O)OCC)n1-c1ccc(OCCOCCOCCOCCOC)cc1 [UL2-036, diethyl 1-(4-(2,5,8,11-tetraoxatridecan-13-yloxy)phenyl)-3,4-dihydroxy-1H-pyrrole-2,5-dicarboxylate]	> 5.00	
CCOC(=O)c1c(O)c(O)c(C(=O)OCC)n1-c1ccc(OCCCN2CCOCC2)cc1 [UL2-037, diethyl 3,4-dihydroxy-1-(4-(3-morpholinopropoxy)phenyl)-1H-pyrrole-2,5-dicarboxylate]	> 5.00	
CCOC(=O)c1c(O)c(O)c(C(=O)OCC)n1-c1ccc(OCc2ccc(OC)cc2)cc1 [UL2-038, diethyl 3,4-dihydroxy-1-(4-((4-methoxybenzyl)oxy)phenyl)-1H-pyrrole-2,5-dicarboxylate]	> 5.00	
CN(C)C(=O)c1c(O)c(O)c(C(=O)N(C)C)n1-c1ccc(F)cc1 [ULI-008, 1-(4-fluorophenyl)-3,4-dihydroxy-N^2,N^2,N^5,N^5-tetramethyl-1H-pyrrole-2,5-dicarboxamide]	> 5.00	
